In brackets after ≈: the same amount, converted by molar mass.
Tests used:
[1] = cited from earlier work
[2] = system: fleas; settings: cited from earlier work
[3] = system: ticks; settings: cited from earlier work
[4] = Solubility in aprotic polar solvents; type: physicochemical
Text: Dinotefuran is a hydrophilic compound that will dissolve in water (approx. 40 g/L). While dinotefuran is most preferred, nitenpyram is highly hydrophilic and could be used in formulations where higher levels of neo-nicotinoid would be desirable. The ether pyrethroid etofenprox will dissolve in some aprotic polar solvents to provide up to 40-60 weight percent while most ester pyrethroids had little solubility. Other ether pyrethroids may be useful provided they have insecticidal activity and may be desirable because of cost and relatively low hydrophobicity.

[5] = system: felines; settings: cited from earlier work

Compound: C/C(=N\C#N)N(C)Cc1ccc(Cl)nc1 [Acetamiprid]
- Water Solubility [1]: 2.95 mg/mL

Compound: CN/C(=N/CC1CCOC1)N[N+](=O)[O-] (centres unmarked) [Dinotefuran]
- kill of fleas [2]: will kill fleas
- kill of ticks [3]: not ticks
- Water Solubility [1]: 39.83 mg/mL
- dissolve in water [1]: approx. 40 g/L

Compound: CCOc1ccc(C(C)(C)COCc2cccc(Oc3ccccc3)c2)cc1 [Etofenprox]
- dissolves in some aprotic polar solvents [4]: 40-60 weight percent
- kill of fleas [2]: will kill both fleas and ticks
- kill of ticks [3]: will kill both fleas and ticks
- toxicity to felines [5]: not toxic to felines
- solubility in water [1]: 0.001 mg/mL (≈ 2.66 µM)

Compound: CCN(Cc1ccc(Cl)nc1)/C(=C/[N+](=O)[O-])NC [Nitenpyram]
- Water Solubility [1]: 840 mg/mL

— patent publication US8853282B1, “Topical liquid insecticide compositions” (priority 2014, dated 2014)
